Assay results taken from the NIST ThermoML archive (doi:10.1021/je900550v).

Conditions: 101.33 kPa, Liquid; for speed of sound: Pulse-echo method; for mass density: Vibrating tube method

CCCCC(=O)[O-].C[NH2+]CCO [2-hydroxy-N-methylethanaminium pentanoate]
Conditions | mass density [kg/m3] | speed of sound [m/s] | viscosity [mPa·s]
322.91 K | 999.412 | 1472.3 | –
323.15 K | – | – | 66.02
323.16 K | 999.237 | 1471.6 | –
323.41 K | 999.06 | 1470.8 | –
323.65 K | 998.891 | 1470 | –
323.91 K | 998.715 | 1469.2 | –
324.16 K | 998.543 | 1468.5 | –
324.41 K | 998.367 | 1467.7 | –
324.65 K | 998.196 | 1467 | –
324.9 K | 998.022 | 1466.2 | –
325.16 K | 997.846 | 1465.4 | –
325.4 K | 997.672 | 1464.7 | –
325.66 K | 997.495 | 1463.9 | –
325.9 K | 997.325 | 1463.1 | –
326.16 K | 997.148 | 1462.4 | –
326.41 K | 996.977 | 1461.6 | –
326.66 K | 996.8 | 1460.8 | –
326.9 K | 996.626 | 1460.1 | –
327.16 K | 996.452 | 1459.3 | –
327.4 K | 996.278 | 1458.5 | –
327.66 K | 996.103 | 1457.8 | –
327.9 K | 995.927 | 1457 | –
328.15 K | 995.753 | 1456.2 | –
328.41 K | 995.577 | 1455.5 | –
328.66 K | 995.401 | 1454.7 | –
328.9 K | 995.229 | 1453.9 | –
329.16 K | 995.05 | 1453.2 | –
329.4 K | 994.879 | 1452.4 | –
329.65 K | 994.701 | 1451.6 | –
329.9 K | 994.528 | 1450.8 | –
330.16 K | 994.354 | 1450.1 | –
330.41 K | – | 1449.3 | –
